Active and inactive are the calls of the source. The rule behind the calls is not given here.
Experiments:
[1] = Selectivity Index, ratio of CC50 for human A549 cells to IC50 for Human adenovirus 5 infected in HEK293beta5 cells coexpressing GFP; format: toxicity, cell-based; conditions: read-out: Ratio CC50/IC50
Human adenovirus 5 [2] = experiment: Antiviral activity against Human adenovirus 5 infected in A549 cells assessed as fold reduction in virus yield at 50 uM incubated for 48 hrs by endpoint dilution method relative to control; format: functional
Human betaherpesvirus 5 = experiment: Antiviral activity against Human cytomegalovirus infected in MRC5 cells assessed as decrease in viral DNA copies at 50 uM incubated for 72 hrs by qRT-PCR analysis; format: functional, organism-based
Human adenovirus 5 [3] = experiment: Antiviral activity against Human adenovirus 5 infected in A549 cells assessed as decrease in […] cDNA copies at 50 uM incubated for 24 hrs by qRT-PCR analysis; format: functional, organism-based
[4] = Stability in Syrian hamster serum assessed as parent compound remaining at 1 uM measured after 60 mins by LC-MS/MS analysis; format: ADME, cell-free, Mesocricetus auratus; conditions: read-out: Stability
[5] = Stability in Syrian hamster serum assessed as parent compound remaining at 1 uM measured after 30 mins by LC-MS/MS analysis; format: ADME, cell-free, Mesocricetus auratus; conditions: for remaining at 0.5 h, 1 µM: read-out: Stability
Human adenovirus 5 [6] = experiment: Antiviral activity against Human adenovirus 5 infected in HEK293beta5 cells coexpressing GFP assessed as inhibition of plaque formation incubated for 7 days; format: functional, organism-based; conditions: Human mastadenovirus C, 168 h
[7] = Stability in Syrian hamster serum assessed as parent compound remaining at 1 uM measured after 120 mins by LC-MS/MS analysis; format: ADME, cell-free, Mesocricetus auratus; conditions: read-out: Stability
[8] = Stability in Syrian hamster serum assessed as parent compound remaining at 1 uM measured after 15 mins by LC-MS/MS analysis; format: ADME, cell-free, Mesocricetus auratus; conditions: for remaining at 0.25 h, 1 µM: read-out: Stability
Human adenovirus 5 [9] = experiment: Antiviral activity against Human adenovirus 5 infected in HEK293beta5 cells coexpressing GFP assessed as inhibition of plaque formation at 10 uM incubated for 7 days relative to control; format: functional; conditions: Human mastadenovirus C, 168 h
[10] = Cytotoxicity against human A549 cells assessed as reduction in cell viability incubated for 48 hrs by alamarBlue assay; format: cell-based
[11] = Stability in Syrian hamster serum assessed as parent compound remaining at 1 uM measured immediately by LC-MS/MS analysis; format: ADME, cell-free, Mesocricetus auratus; conditions: read-out: Stability
Human adenovirus 5 [12] = experiment: Antiviral activity against Human adenovirus 5 infected in A549 cells assessed as nuclear associated viral DNA copies at 50 uM incubated for 45 mins by qRT-PCR analysis; format: functional, organism-based
Human adenovirus 5 [13] = experiment: Antiviral activity against Human adenovirus 5 infected in A549 cells assessed as decrease in […] cDNA copies incubated for 24 hrs by qRT-PCR analysis; format: functional, organism-based

| SMILES | selectivity ratio [1] | fold change (FC) (Human adenovirus 5 [2]) | Activity (Human betaherpesvirus 5) | Activity (Human adenovirus 5 [3]) | remaining at 1 h, 1 µM [4] [%] | Stability ([5]; 0.5 h, 1 µM) [%] | IC50 (Human adenovirus 5 [6]) [µM] | remaining at 2 h, 1 µM [7] [%] | Stability ([8]; 0.25 h, 1 µM) [%] | inhibition at 10 µM (Human adenovirus 5 [9]) [%] | CC50 at 48 h [10] [µM] | remaining at 0 min, 1 µM [11] [%] | Activity (Human adenovirus 5 [12]) | remaining at 0.5 h, 1 µM [5] [%] | remaining at 0.25 h, 1 µM [8] [%] | Activity (Human adenovirus 5 [13]) |
| --- | --- | --- | --- | --- | --- | --- | --- | --- | --- | --- | --- | --- | --- | --- | --- | --- |
| CC1CN(C(=O)Cc2ccccc2)CCN1C(=S)Nc1ccc([N+](=O)[O-])cc1 (stereo not drawn) | 105 | 25.6 | Active | inactive | 114 | 139.4 | 2 | 107 | 142.7 | 98.2 | 210 | 100 | Active |  |  |  |
| CC1CN(C(=O)CC2CCCCC2)CCN1C(=S)Nc1ccc(F)cc1 (stereo not drawn) | 238 | 30.5 |  |  | 85 |  | 0.6 | 67.3 |  | 100 | 143 | 100 | Active | 96.4 | 117 |  |
| CC1CN(C(=O)OC(C)(C)C)CCN1C(=S)Nc1ccc(F)cc1 (stereo not drawn) | 111 | 12.1 |  |  | 86.5 |  | 1.8 | 75.4 |  | 92.9 | 200 | 100 | Active | 102 | 97.8 |  |
| CC[C@H](C)[C@@H]1NC(=O)CNC(=O)[C@@H]2Cc3c([nH]c4cc(O)ccc34)[S@+]([O-])C[C@H](NC(=O)CNC1=O)C(=O)N[C@@H](CC(N)=O)C(=O)N1C[C@H](O)C[C@H]1C(=O)N[C@@H]([C@@H](C)[C@@H](O)CO)C(=O)N2 |  |  |  |  |  |  |  |  |  |  |  |  |  |  |  | Dose-dependent effect |
| CC1CN(C(=O)Cc2ccccc2)CCN1C(=S)Nc1cc(C(F)(F)F)cc(C(F)(F)F)c1 (stereo not drawn) | 25.4 | 33.4 | Active | Active | 96.5 |  | 5.1 | 92.8 |  | 73.4 |  | 100 | Active | 107 | 109 | Dose-dependent effect |
| O=C(Cc1ccccc1)N1CCN(C(=S)Nc2cc(C(F)(F)F)cc(C(F)(F)F)c2)C(c2ccccc2)C1 (stereo not drawn) | 149 | 1690 |  |  | 90.5 |  | 0.7 | 100 |  | 100 | 104 | 100 | Active | 110 | 97.2 |  |
| Cc1ccc(NC(=S)N2CCN(C(=O)CC3CCCCC3)CC2C)cc1 (stereo not drawn) | 58.2 | 39.1 | Active | inactive |  |  | 2.1 |  |  | 95.8 | 122 |  | Active |  |  |  |

From ChEMBL document CHEMBL4312024, “Optimization of piperazine-derived ureas privileged structures for effective antiadenovirus agents” (Eur J Med Chem, 2020)
